Data set [1] has as its system MDA-MB-231 xenografts. Put plainly: Mouse xenograft, pharmacodynamic study. It is filed as in vivo. The procedure:
For the pharmacodynamic study, athymic nude mice (eight weeks; Charles River Laboratories) were injected with 8 million MDA-MB-231 cells subcutaneously. […] Tumor size was measured by electronic caliper every two days and calculated using the formula: 0.523×Length×width^2.
Mice were euthanized using a CO2 gas chamber before xenograft dissection. Tumors were then weighed, frozen and stored at −80° C. Segments of the tumor were taken (about 60 mg) and suspended in 120 μL lysis buffer. Xenografts were then lysed by sonication (40 amp for 10-15 seconds) and samples were centrifuged at 14,000 rpm at 4° C. for 30 minutes to remove unlysed cells and debris. The supernatant was then analyzed by Western blotting using the aforementioned protocol.

In data set [2] the test system is Mia-Paca2, NCI-H441, NCI-H23, BJeLR and HT1080 cells. The data set is described as follows: Expression of the mutant RAS isoform by qPCR. It is filed as cell-based. The note with it: 4 and 24 hours, 10 μM. From the text: Samples were normalized to DMSO treatment.
In addition to altering genes associated with RAS activation, it was hypothesized that upon inhibitor treatment, cells would attempt to compensate by expressing additional RAS proteins.
For orientation: Quantitative PCR measures a nucleic acid by following its amplification.

Data set [3] has as its system BJeLR (HRAS^G12V) cells. Put plainly: Gene expression analysis by RT-qPCR. Type of data set: cell-based. On the procedure: FIG. 22A-FIG. 22D show BJeLR cells were treated with DMSO, 31 MEW44 at 5 μM and/or 25 μM alongside BJHLT treated with DMSO for one hour. Cells were lysed and the RNA was extracted, converted to cDNA and quantified by qPCR.
Gene Expression Analysis by RT-qPCR
Cells from six-well plates were trypsinized and centrifuged at 3,000 rpm for 3 minutes. The cell pellet was then lysed and the RNA was extracted using QIAshreader and RNAeasy extraction kits (QIAGEN) according to the manufacturer's protocol. 2 micrograms of RNA from each sample was then converted to cDNA using the TaqMan RT Kit (Applied Biosystems). Primers for Quantitative PCR (qPCR) were designed with Primer Express. qPCR was performed using Power SYBR Green Master Mix (Applied Biosystems) in a 96-well format, in triplicate, using an Applied Biosystems 7300 Cycler set to absolute quantification. Expression changes were computed using the ΔΔCt method with GAPDH as an internal reference gene. The primers used were as follows: urokinase-type plasminogen activator (uPA) Forward 5′ […] 3′ (SEQ ID NO: 54), reverse 5′ […] 3′ (SEQ ID NO: 55); matrix metalloprotease 9 (MMP9) forward 5′ […] 3′ (SEQ ID NO: 56), reverse 5′ […] 3′ (SEQ ID NO: 57); lactate dehydrogenase (LDH) forward 5′ […] 3′ (SEQ ID NO: 58), reverse 5′ […] 3′ (SEQ ID NO: 59); CMYC forward 5′ […] 3′ (SEQ ID NO: 60), reverse 5′ […] 3′ (SEQ ID NO: 61).

Data set [4] deals with T1, GppNHp-loaded RHOA (Homo sapiens, UniProt P61586).
T1 construct: purchased Abcam ab101594
T1 sequence (P61586 whole entry): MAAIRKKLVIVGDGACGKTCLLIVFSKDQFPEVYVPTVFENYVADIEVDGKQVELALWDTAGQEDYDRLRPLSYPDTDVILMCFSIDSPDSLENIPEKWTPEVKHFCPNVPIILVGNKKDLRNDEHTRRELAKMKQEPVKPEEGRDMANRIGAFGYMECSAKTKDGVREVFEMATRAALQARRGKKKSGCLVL
The data set is described as follows: Microscale thermophoresis on GppNHp-loaded RHOA. To be noted: MST, up to 190 μM. It is filed as binding. The procedure:
(§1) KRAS^G12D (250 μM) in 25 mM HEPES, 100 mM sodium chloride, 2 mM TCEP with 20 mM EDTA and 1 mM GppNHp was shaken at 220 rpm at 30° C. to remove the endogenous nucleotide, The solution was placed on ice for 2 minutes prior to the addition of 65 mM MgCl2. After an additional 10 minutes incubation on ice, 200 uL of a 10 uM solution of KRAS^G12D was combined with 200 uL of a 20 uM solution of NT-647-NHS-ester dye (from a 652.4 μM stock). The protein/dye mixture was rotated at 4° C. for 30 minutes, before being separated from the excess dye and buffer exchanged into 25 mM Tris, 100 mM sodium chloride, 2 mM TCEP, and 5 mM MgCl2 via a nap-5 column. The test compounds were arrayed across a 16-point dilution series consisting of 1.5% DMSO with 25 mM Tris, 100 mM NaCl, 2 mM TCEP, 5 mM MgCl2 and 0.05% tween-20. Thermophoretic movement of the fluorescently labeled protein with the inhibitors was performed using a Monolith NT.115 (Nanotemper Technologies). RALA and RHOA were purchased commercially from Abcam (RALA CN:ab102555, RHOA CN:ab101594).
(§2) To provide evidence that the compound indeed was selective for RAS GTPases, MST binding measurements were performed on GppNHp-loaded RHEB, RHOA and RALA (FIG. 14J).
(In general: MST reads how a fluorescent partner responds to local heating, with and without ligand.)

Data set [5] has as its target T2, GppNHp-loaded RALA (Homo sapiens, UniProt P11233).
T2 construct: purchased Abcam ab102555
Put plainly: Microscale thermophoresis on GppNHp-loaded RALA. It is filed as binding. To be noted: MST, up to 190 μM. The procedure: as §1, §2

Data set [6] deals with SW480 (KRAS^G12V). The data set is described as follows: Multicellular tumor spheroids in low adherence plates. Type of data set: cell-based. The note with it: 72 hours. The procedure:
Multicellular Tumor Spheroids
Multicellular tumor spheroids (MCTSs) were grown in 96-well Corningware Ultra Low Attachment (ULA) Plates (CLS 3474). 100 μL of cell suspension containing 2×10^4 cells/ml were added to each well of the ULA plate containing 100 μL of a 2× solution of the desired concentration of compounds. Cells were incubated at 37° C., 5% CO2 for 72 hours to allow for MCTS formation. After 72 hours, 50 μL of a 50% solution of Alamar blue and medium was added and incubated for 12 hours prior to measurements on a Victor3 plate reader as previously described.

T2 sequence (P11233 whole entry): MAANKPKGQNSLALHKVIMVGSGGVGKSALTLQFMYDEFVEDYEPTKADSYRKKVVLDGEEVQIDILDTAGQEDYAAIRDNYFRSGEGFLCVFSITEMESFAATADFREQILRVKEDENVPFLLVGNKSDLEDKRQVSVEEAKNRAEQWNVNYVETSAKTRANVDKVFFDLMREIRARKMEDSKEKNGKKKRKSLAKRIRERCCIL

In the case of `NC1(C(=O)NCCCn2cc(-c3ccc(OC(F)(F)F)cc3)c3cc(CN4CCN(Cc5c(Cl)cccc5Cl)CC4)ccc32)CCNCC1` [Compound 31MEW44, 4-amino-N-(3-(5-((4-(2,6-dichlorobenzyl)piperazin-1-yl)methyl)-3-(4-(trifluoromethoxy)phenyl)-1H-indol-1-yl)propyl)piperidine-4-carboxamide], in data set [1] (30 mg/kg daily intraperitoneal injection), the toxicity entry is recorded as “No overt toxicity”. Moreover, in data set [1] (Western blotting of xenografts, 30 mg/kg i.p.), the “tumor pERK levels lower than vehicle” value is “about 70%”. Also, the RAS expression result in data set [2] is “time-dependent increase of RAS expression”. In addition, in data set [3], the “CMYC mRNA” value was “dose-dependent reduction in CMYC mRNA”; the LDH expression entry was “decreased these elevated levels of LDH, dose-dependently”; the MMP9 expression entry is listed as “Downregulation of MMP9 expression”. Moreover, in data set [3] (5 μM and 25 μM), the “DUSP6 and IDH2 expression profile” value is reported as “profile characteristic of decreased activation of RAS signaling”; the uPA expression entry is listed as “dose-dependent decrease in uPA expression”. Besides, the binding result in data set [4] was “no binding was observed”. Also, the binding result in data set [5] is “no binding was observed”. Moreover, the “size of multicellular tumor spheroids” value in data set [6] is recorded as “decreased in size in a dose-dependent manner”.

The values are drawn from patent US9926293B2, “Multivalent RAS binding compounds” (THE TRUSTEES OF COLUMBIA UNIVERSITY IN THE CITY OF NEW YORK, priority 2014, dated 2018).
